From ChEMBL document CHEMBL1201862, “PubChem BioAssay data set” (2004)
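All cell lines were grown in 96-well plates and treated with compound for 48 hours. At the GI50, growth is halved.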 Activity calls are given as the source filed them. No stated cut-off is given here; in the data, active = GI50 up to about 1.1 µM and inactive = higher.

What was measured:
Assay in all cases: DTP human tumour cell line panel, 48 h
[1] = system: Hs-578T
[2] = system: SR
[3] = system: SF-295
[4] = system: 786-0
[5] = system: NCI-H226
[6] = system: HCT-15
[7] = system: LOX IMVI
[8] = system: NCI/ADR-RES
[9] = system: OVCAR-8
[10] = system: Malme-3M
[11] = system: SK-MEL-5
[12] = system: SW-620
[13] = system: SF-539
[14] = system: RXF 393
[15] = system: UACC-62
[16] = system: EKVX
[17] = system: HOP-62
[18] = system: OVCAR-5
[19] = system: MDA-N
[20] = system: HT-29
[21] = system: NCI-H460
[22] = system: U-251
[23] = system: A498
[24] = system: MDA-MB-435
[25] = system: SF-268
[26] = system: K562
[27] = system: COLO 205
[28] = system: CCRF-CEM
[29] = system: CAKI-1
[30] = system: SK-OV-3
[31] = system: HCC 2998
[32] = system: MOLT-4
[33] = system: UACC-257
[34] = system: HL-60
[35] = system: DU-145
[36] = system: OVCAR-4
[37] = system: SNB-19
[38] = system: HCT-116
[39] = system: A549
[40] = system: PC-3
[41] = system: NCI-H23
[42] = system: SK-MEL-2
[43] = system: UO-31
[44] = system: SNB-75
[45] = system: SK-MEL-28
[46] = system: T47D
[47] = system: TK-10
[48] = system: ACHN
[49] = system: SN12C
[50] = system: M14
[51] = system: RPMI-8226
[52] = system: MCF7
[53] = system: IGROV-1
[54] = system: OVCAR-3
[55] = system: KM12
[56] = system: MDA-MB-231
[57] = system: NCI-H522

In the case of `O=C(O)c1cc(-c2ccc3c(O)c(O)ccc3c2)ccc1O`, the GI50 [1] is reported as > 75 µM (inactive), the GI50 [2] is reported as 18.1 µM (inactive) and the GI50 [3] is reported as 16.1 µM (inactive). For the same compound, the GI50 [4] was 31.7 µM (inactive), the GI50 [5] was 28 µM (inactive) and the GI50 [6] was 41.3 µM. For the same compound, the GI50 [7] was 14.1 µM (inactive), the GI50 [8] was 33.6 µM (inactive) and the GI50 [9] was 23.1 µM (inactive). For the same compound, the GI50 [10] was > 75 µM (inactive), the GI50 [11] was 34.2 µM (inactive) and the GI50 [12] was 15 µM (inactive). For the same compound, the GI50 [13] was > 75 µM (inactive), the GI50 [14] was 17.4 µM (inactive) and the GI50 [15] was 27 µM (inactive). For the same compound, the GI50 [16] was > 75 µM (inactive), the GI50 [17] was > 75 µM (inactive) and the GI50 [18] was 12.6 µM (inactive). For the same compound, the GI50 [19] was 25.2 µM (inactive), the GI50 [20] was 18.6 µM (inactive) and the GI50 [21] was > 7.5 µM (inactive). For the same compound, the GI50 [22] was 15 µM (inactive), the GI50 [23] was 72.9 µM (inactive) and the GI50 [24] was 21.7 µM (inactive). The GI50 [25] was > 75 µM (inactive), the GI50 [26] was 13.1 µM (inactive) and the GI50 [27] was 24.9 µM (inactive). The GI50 [28] was 12.3 µM (inactive), the GI50 [29] was 4.34 µM (inactive) and the GI50 [30] was > 75 µM (inactive). For the same compound, the GI50 [31] was > 75 µM (inactive), the GI50 [32] was 12.6 µM (inactive) and the GI50 [33] was 68.4 µM (inactive). The GI50 [34] was 16.8 µM (inactive), the GI50 [35] was > 75 µM (inactive) and the GI50 [36] was 12.9 µM (inactive). The GI50 [37] was > 75 µM (inactive), the GI50 [38] was 15.8 µM (inactive) and the GI50 [39] was 66.4 µM (inactive). For the same compound, the GI50 [40] was > 75 µM (inactive), the GI50 [41] was 43.6 µM (inactive) and the GI50 [42] was > 75 µM (inactive). For the same compound, the GI50 [43] was > 75 µM (inactive), the GI50 [44] was > 75 µM (inactive) and the GI50 [45] was > 75 µM (inactive). The GI50 [46] was > 75 µM (inactive), the GI50 [47] was > 75 µM (inactive) and the GI50 [48] was > 75 µM (inactive). The GI50 [49] was 14.8 µM (inactive), the GI50 [50] was 20.7 µM (inactive) and the GI50 [51] was 15.9 µM (inactive). For the same compound, the GI50 [52] was 13.4 µM (inactive), the GI50 [53] was 40.5 µM (inactive) and the GI50 [54] was > 75 µM (inactive). For the same compound, the GI50 [55] was 47.4 µM (inactive), the GI50 [56] was 26.1 µM (inactive) and the GI50 [57] was 38.5 µM (inactive).
